Laboratory results as given in paper PMC4886532, “A highly soluble, non-phototoxic, non-fluorescent blebbistatin derivative” (Scientific Reports, 2016).
Converted amounts (≈) assume the structure as drawn. Where two headings read alike, the source gives them in different places.

Assays:
myosin II = settings: no reference given; cited from earlier work
HeLa cells = assay: Wound healing assay (cell motility); format: cell-based, human; settings: 20 μM, 24 hours, uncoated glass; 100% = total diameter of the wound; control 30.6 ± 5.4%
Protocol: For wound healing assays, 200 μl of HeLa cells were plated on 35 mm borosilicate glass imaging dishes at 300,000 cells/ml concentrations and incubated for 24 hours. 1 hour prior to wounding, cells were incubated in 20 μM of the different myosin II inhibitors. After one hour, scratches were made with pipette tips in monolayer cultures and the motility of cells for occupying the wound was monitored for 24 hours with a Foculus Digital Camera (IEEE1394). Analysis of cell motility was carried out by ImageJ, by measuring the distance between two lines fitted on the two sides of the approaching cell edges created by the pipette tips.

[1] = Solubility assays in assay buffer (supernatant concentration after centrifugation); settings: room temperature
Protocol: 50 μM of the inhibitors were dissolved in assay buffer (see Experimental Procedures) containing 0.1 or 1 vol/vol% DMSO, centrifuged at the indicated times and the concentration of the supernatants were determined at each time point (Fig. 2a,b).
The DMSO content was 1%. […] The experiments were repeated three times.

zebrafish embryo = test system: zebrafish embryo; parameters: method as in PMID 24954740; settings: after 24 hours of incubation; cited from earlier work
[2] = molecular target: T1, rabbit skeletal muscle myosin S1 (SkS1) (Oryctolagus cuniculus, UniProt Q28641); assay: Steady state basal ATPase, SkS1; format: biochemical; settings: 25 °C
T1 construct: SkS1 (rabbit skeletal S1 fragment); from tissue; host or cells: rabbit skeletal muscle
T1 sequence (Q28641 1-844 limits assumed): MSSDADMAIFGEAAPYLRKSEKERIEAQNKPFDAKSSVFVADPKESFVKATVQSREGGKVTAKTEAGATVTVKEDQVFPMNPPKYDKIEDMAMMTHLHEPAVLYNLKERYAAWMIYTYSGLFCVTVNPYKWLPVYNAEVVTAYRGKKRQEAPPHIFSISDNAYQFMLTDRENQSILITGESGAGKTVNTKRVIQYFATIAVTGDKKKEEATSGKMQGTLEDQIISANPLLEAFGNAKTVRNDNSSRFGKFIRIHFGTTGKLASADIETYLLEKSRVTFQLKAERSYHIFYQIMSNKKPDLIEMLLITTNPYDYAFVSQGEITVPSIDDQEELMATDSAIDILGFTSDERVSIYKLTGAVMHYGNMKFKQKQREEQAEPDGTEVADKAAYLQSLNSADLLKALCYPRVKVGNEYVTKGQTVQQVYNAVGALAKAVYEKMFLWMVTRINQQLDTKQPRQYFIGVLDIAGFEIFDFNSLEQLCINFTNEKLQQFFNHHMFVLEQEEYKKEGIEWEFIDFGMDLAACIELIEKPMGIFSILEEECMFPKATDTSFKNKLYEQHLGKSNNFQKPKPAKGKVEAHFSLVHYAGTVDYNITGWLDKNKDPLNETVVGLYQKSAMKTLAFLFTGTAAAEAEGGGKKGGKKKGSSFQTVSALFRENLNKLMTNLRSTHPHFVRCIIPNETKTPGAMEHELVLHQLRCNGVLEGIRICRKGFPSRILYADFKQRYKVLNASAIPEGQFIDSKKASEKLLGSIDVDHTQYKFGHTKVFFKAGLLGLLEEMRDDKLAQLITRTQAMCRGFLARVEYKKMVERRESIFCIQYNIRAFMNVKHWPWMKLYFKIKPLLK
T1 sequence (P02602 whole entry partner, the tested form may be a part): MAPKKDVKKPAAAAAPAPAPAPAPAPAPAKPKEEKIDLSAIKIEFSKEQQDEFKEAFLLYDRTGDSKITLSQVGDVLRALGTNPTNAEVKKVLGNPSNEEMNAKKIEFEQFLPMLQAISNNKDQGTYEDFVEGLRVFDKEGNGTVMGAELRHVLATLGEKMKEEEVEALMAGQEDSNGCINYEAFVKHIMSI

[3] = test system: HeLa Kyoto H2B-mCherry eGFP-α-tubulin cells; assay: Cell growth assay (cell number, cytokinesis)
Protocol: Cells incubated in different concentrations of the inhibitors were counted on each day for three days.

M2 cells = assay: Inhibition of blebbing (blebbing index) of M2 cells; format: cell-based, human
Protocol: Next, we compared the non-muscle myosin II inhibition by para-aminoblebbistatin, para-nitroblebbistatin and blebbistatin in human melanoma (M2) and HeLa cells. As blebbistatin acquired its name from its ability to block blebbing of M2 cells, we compared blebbing indices[17] of M2 cells in time, incubated in the three different myosin II inhibitors at different concentrations (Fig. 3c–e). Even 5 μM concentrations of the myosin II inhibitors achieved significant decrease in the blebbing indices of the cells within an hour, whereas higher concentrations of the inhibitors completely stopped blebbing of the cells within >40–60 minutes (10 μM) or >20 minutes (25 and 50 μM).
For blebbing index determination, M2 cells were incubated for 30 minutes in PBS in every case prior to the addition of inhibitors, in order to initiate extensive blebbing. Blebbing of the cells was monitored before as well as after inhibitor addition to the cells. DMSO concentration was 0.1 vol/vol% in all experiments. Blebbing index was calculated by summing the initiated blebs in a 5-minute interval (starting at the indicated time points) on a given standard area[17] (whole cells with similar size, diameter = 12 ± 1 μm) and normalizing it to the blebbing index prior to inhibitor treatment.

[4] = test system: zebrafish skeletal muscle; assay: Fast escape response (C-start), maximal angular velocity; format: in vivo, zebrafish (Danio rerio); settings: 2 μM
Protocol: (§1) Since the myosin II inhibitors decrease the ATPase activity of SkS1 in vitro, we tested their inhibition on zebrafish skeletal muscle in vivo. We investigated the fast escape response (C-start) reflex of 6 dpf fish evoked by standardized tapping stimuli (Video 1). […] The velocity of the rotating heads of the embryos were quantified (maximal angular velocity) in the absence and in the presence of increasing concentrations of the myosin II inhibitors (2, 5, 10, 20 μM), monitored for 4 hours. The half maximal effective concentration (EC50) values for the inhibition of the maximal angular velocity by the myosin II inhibitors are below 2 μM since even at 2 μM the inhibitory effects were >90% for all inhibitors. We experienced that the inhibitory effect of para-aminoblebbistatin is exerted much slower than that of blebbistatin and para-nitroblebbistatin, probably due to its slower uptake (half inhibitions at […], respectively) (Supplementary Figure 1). To further evaluate the specificity of blebbistatin and its derivatives on different myosin II isoforms, we examined the effect of the inhibitors on 6 dpf (days post fertilization) zebrafish heart muscle in vivo. We monitored heart beating and the amplitude of heart muscle contraction before and after the addition of 20 μM of the inhibitors to the specimens.
(§2) The tapping force was standardized. […] For the cytotoxicity assay, zebrafish embryos were incubated in E3 medium containing 0 μM (Control), 5 μM, 10 μM or 20 μM of para-aminoblebbistatin, para-nitroblebbistatin or blebbistatin in 0.1 vol/vol% final concentration of DMSO and monitored for 70 hours.

zebrafish heart muscle = assay: Heart beating and amplitude of heart muscle contraction; format: in vivo, zebrafish (Danio rerio); settings: 20 μM, 6 dpf
Protocol: as §1, §2

[5] = molecular target: T2, Dictyostelium discoideum myosin II motor domain (DdMD) (Dictyostelium discoideum, UniProt P08799); assay: biochemical; settings: for IC50: 20 °C
T2 construct: Dictyostelium discoideum myosin II motor domain (DdMD)
T2 sequence (P08799 86-759 limits assumed): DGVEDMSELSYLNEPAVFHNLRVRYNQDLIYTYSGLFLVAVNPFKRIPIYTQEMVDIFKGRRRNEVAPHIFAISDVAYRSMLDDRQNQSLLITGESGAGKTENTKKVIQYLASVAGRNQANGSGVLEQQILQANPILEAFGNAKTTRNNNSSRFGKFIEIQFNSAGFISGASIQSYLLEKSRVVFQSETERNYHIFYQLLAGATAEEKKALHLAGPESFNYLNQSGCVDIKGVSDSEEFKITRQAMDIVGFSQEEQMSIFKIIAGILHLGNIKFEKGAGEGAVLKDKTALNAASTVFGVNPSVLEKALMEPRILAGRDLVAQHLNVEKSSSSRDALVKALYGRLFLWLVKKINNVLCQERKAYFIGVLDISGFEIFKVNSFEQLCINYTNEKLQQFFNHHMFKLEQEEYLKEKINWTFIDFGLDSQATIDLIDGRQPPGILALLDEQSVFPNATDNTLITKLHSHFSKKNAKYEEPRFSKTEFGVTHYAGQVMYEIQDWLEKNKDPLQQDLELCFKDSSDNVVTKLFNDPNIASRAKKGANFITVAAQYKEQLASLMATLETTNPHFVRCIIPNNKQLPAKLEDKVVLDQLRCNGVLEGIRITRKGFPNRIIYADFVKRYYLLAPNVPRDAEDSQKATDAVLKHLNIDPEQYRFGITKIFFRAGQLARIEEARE
Protocol: (§3) Myosin and actin together with the indicated concentration of the inhibitor were pre-incubated for 5 minutes at room temperature and the measurements were initiated with 1 mM ATP. Data were corrected for background ATPase activity of actin. G-actin was prepared accordingly from rabbit skeletal muscle[24] and polymerized by 2 mM MgCl2 for 1 hour at room temperature. Measurements were performed in low salt buffer containing 5 mM HEPES, 2 mM MgCl2, 0.1 mM EGTA and 2 mM DTT at pH 7.2 or assay buffer containing 20 mM HEPES, 40 mM NaCl, 4 mM MgCl2 at pH 7.3 for basal ATPase activity measurements with DdMD.

[6] = molecular target: T1, rabbit skeletal muscle myosin S1 (SkS1); assay: Steady state actin activated ATPase, SkS1; format: biochemical; settings: 45 μM actin, 25 °C
Protocol: as §3, with “[…]. Myosin” for “Myosin”

[7] = test system: cldnb:gfp zebrafish embryos; assay: Posterior lateral line primordium (pLLp) migration; format: in vivo, zebrafish (Danio rerio); settings: 20 μM, 24 hours of incubation
Protocol: However, the highly fluorescent, dense precipitates of blebbistatin disturb imaging in the GFP channel of the microscope. […] In this experiment, cldnb:gfp zebrafish embryos were imaged by an epifluorescent microscope after 24 hours of incubation in the presence of 20 μM concentrations of the indicated inhibitors (Fig. 4d) in order to detect the effect of myosin II inhibition on the proliferating leading edge of the posterior lateral line primordium (pLLp)[21] and visualize the effect of the precipitates by epifluorescent microcopy. […] In the case of para-aminoblebbistatin treatment, the GFP signal of the migrating pLLp can be visualized clearly, while the precipitates of the two other inhibitors highly disturbed the imaging.

Structure (SMILES)	IC50 (myosin II) [µM]	Relative migration of HeLa cells (HeLa cells) [%]	Solubility ([1]; 0.1 vol/vol% DMSO in assay buffer) [µM]	Solubility ([1]; 1 vol/vol% DMSO in assay buffer) [µM]	Toxicity in live zebrafish embryo tests (zebrafish embryo)	IC50 [2] [µM]	Fold weaker IC50 than blebbistatin's (cell proliferation) ([3]; day 3)	IC50 ([3]; read-out: IC50 of the inhibition of cell proliferation, cell number at day 3) [µM]	Time constant τ of inhibition of blebbing (M2 cells; 5 μM) [min]	Time constant τ of inhibition of blebbing (M2 cells; 10 μM) [min]	Time constant τ of inhibition of blebbing (M2 cells; 25 μM) [min]	Half inhibition time of maximal angular velocity [4] [h]	Time within which amplitude of contraction and blood circulation dropped drastically (zebrafish heart muscle)	Maximal inhibition of actin activated ATPase of DdMD [5]	Maximal inhibition of basal ATPase of DdMD [5]	IC50 ([5]; 15 μM actin, read-out: IC50 actin activated ATPase activity of DdMD) [µM]	IC50 ([5]; read-out: IC50 basal ATPase of DdMD) [µM]	IC50 [6] [µM]	Effect on pLLp migration [7]
Cc1cc2c(cc1[N+](=O)[O-])N=C1N(c3ccccc3)CCC1(O)C2=O (stereo not shown) [nitroblebbistatin]	27.5	–	–	–	–	–	–	–	–	–	–	–	–	–	–	–	–	–	–
Cc1ccc2c(c1)C(=O)[C@]1(O)CCN(c3ccc([N+](=O)[O-])cc3)C1=N2 [para-nitroblebbistatin]	–	53.2 ± 17.6	3.3 ± 0.1 (≈ 1.11 µg/mL)	3.6 ± 0.2 (≈ 1.21 µg/mL)	negligible	0.3 ± 0.04	2–3 times	14.7 ± 4.2	21.9 ± 4.6	11.7 ± 0.5	5.9 ± 0.2	1.3	within the first hour	~ 100%	~ 100%	3.4 ± 0.3	5.3 ± 1.6	0.1 ± 0.004	halted pLLp migration
